Assays:
Type in all cases: cell-based, Influenza A virus
[1] = tested on: Baloxavir-resistant A/Puerto Rico/8/1934 (PA I38T)
[2] = tested on: Oseltamivir-resistant A/Weiss/1943 (NA H275Y)
[3] = tested on: A/Malaya/302/1954 (H1N1); test: microbe, parasite or virus in culture; settings: read-out: EC50

| Structure (SMILES) | EC50 [1] [nM] | EC50 [2] [nM] | EC50 [3] [nM] | Fold shift [1] | Fold shift [2] |
| --- | --- | --- | --- | --- | --- |
| O=C1c2c(O)c(=O)ccn2N([C@@H]2c3ccccc3SCc3c2ccc(F)c3F)[C@@H]2COCCN12 [Baloxavir, baloxavir, reference compound] | 105 | 0.42 | 1.1 |  |  |
| CCOC(=O)C1=C[C@@H](OC(CC)CC)[C@H](NC(C)=O)[C@@H](N)C1 [Oseltamivir, oseltamivir, reference compound] | 2810 | > 78400 | 1150 | 2.89 | >74.66 |
| COC[C@@]1(C)COC[C@@H](COc2ccc(-c3cc(C(N)=O)c(O)nc3C(F)(F)F)cc2)O1 [VNT-101] |  | 118 | > 50000 |  |  |
